According to ChEMBL document CHEMBL1201862, “PubChem BioAssay data set” (2004):
Values joined by “and” are separate entries in the source; they are usually repeats but may differ in a detail not shown here. Identical values can stand only once. Active and inactive are the calls of the source.

Columns and labels:
Cytochrome P450 3A4 = Cytochrome P450 3A4 (Homo sapiens, UniProt P08684); conditions: Potency;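 also: confirmatory qHTS run detecting inhibitors and substrates of CYP3A4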
Coagulation factor XII = target: T1, Coagulation factor XII (Homo sapiens, UniProt P00748); format: functional;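 also: activated factor XIIa alpha cleaving a fluorogenic AMC peptide substrate; inhibitor potency from loss of enzyme activity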
T1 sequence (P00748 whole entry): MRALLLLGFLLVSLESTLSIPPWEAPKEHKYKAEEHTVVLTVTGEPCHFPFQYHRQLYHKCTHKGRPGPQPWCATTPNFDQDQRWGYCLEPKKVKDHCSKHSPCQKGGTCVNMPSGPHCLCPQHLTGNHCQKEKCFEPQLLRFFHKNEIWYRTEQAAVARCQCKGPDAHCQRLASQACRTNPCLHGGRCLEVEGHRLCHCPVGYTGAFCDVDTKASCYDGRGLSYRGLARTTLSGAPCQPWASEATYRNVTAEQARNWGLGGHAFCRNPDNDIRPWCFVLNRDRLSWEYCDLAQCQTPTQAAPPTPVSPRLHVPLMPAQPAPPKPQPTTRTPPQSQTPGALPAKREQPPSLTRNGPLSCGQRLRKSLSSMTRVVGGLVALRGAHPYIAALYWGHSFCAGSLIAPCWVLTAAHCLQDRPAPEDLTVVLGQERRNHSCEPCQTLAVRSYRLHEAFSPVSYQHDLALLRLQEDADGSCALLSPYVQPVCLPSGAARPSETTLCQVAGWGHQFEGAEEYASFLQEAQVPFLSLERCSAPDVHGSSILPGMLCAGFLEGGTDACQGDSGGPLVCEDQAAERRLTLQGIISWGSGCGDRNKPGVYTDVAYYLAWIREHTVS

[1] = target: Glyceraldehyde-3-phosphate dehydrogenase (Homo sapiens, UniProt P04406)
Chain of Glyceraldehyde-3-phosphate dehydrogenase (P04406 whole entry): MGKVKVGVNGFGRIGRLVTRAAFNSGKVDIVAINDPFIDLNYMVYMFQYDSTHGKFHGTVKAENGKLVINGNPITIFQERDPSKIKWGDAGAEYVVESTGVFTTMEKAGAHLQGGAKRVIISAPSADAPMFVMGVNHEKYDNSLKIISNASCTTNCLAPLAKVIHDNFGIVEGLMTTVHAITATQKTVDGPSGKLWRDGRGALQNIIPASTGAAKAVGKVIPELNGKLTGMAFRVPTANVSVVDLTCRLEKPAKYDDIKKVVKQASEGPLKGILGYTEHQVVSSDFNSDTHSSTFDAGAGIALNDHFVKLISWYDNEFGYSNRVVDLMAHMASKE

[2] = target: T2, Alkaline phosphatase, tissue-nonspecific isozyme (Homo sapiens, UniProt P05186); assay: human TNAP enzyme inhibitors, SAR follow-up, biochemical, luminescent, dose response (AID 1056)
T2 sequence (P05186 whole entry): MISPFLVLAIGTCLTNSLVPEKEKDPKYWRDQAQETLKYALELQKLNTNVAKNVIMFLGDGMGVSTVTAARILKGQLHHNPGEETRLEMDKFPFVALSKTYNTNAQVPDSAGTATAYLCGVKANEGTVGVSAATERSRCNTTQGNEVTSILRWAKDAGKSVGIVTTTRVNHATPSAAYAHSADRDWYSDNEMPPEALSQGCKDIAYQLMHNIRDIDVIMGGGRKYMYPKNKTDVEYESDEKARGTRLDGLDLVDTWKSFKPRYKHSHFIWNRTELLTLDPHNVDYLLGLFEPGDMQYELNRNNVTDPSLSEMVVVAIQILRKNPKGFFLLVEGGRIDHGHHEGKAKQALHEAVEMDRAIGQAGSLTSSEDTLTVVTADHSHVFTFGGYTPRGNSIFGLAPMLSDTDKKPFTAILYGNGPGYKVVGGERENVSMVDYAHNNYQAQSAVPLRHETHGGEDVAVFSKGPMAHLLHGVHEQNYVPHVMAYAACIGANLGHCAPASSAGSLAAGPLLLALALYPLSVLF

[3] = target: G-protein coupled receptor 55 (Homo sapiens, UniProt Q9Y2T6); assay: GPR55 antagonists blocking LPI-driven arrestin recruitment, primary screen, imaging, U2OS, beta-arrestin-GFP, LPI agonist (AID 2013); format: functional;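 also: antagonist potency measured as reduced agonist-driven arrestin aggregation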
Chain of G-protein coupled receptor 55 (Q9Y2T6 whole entry): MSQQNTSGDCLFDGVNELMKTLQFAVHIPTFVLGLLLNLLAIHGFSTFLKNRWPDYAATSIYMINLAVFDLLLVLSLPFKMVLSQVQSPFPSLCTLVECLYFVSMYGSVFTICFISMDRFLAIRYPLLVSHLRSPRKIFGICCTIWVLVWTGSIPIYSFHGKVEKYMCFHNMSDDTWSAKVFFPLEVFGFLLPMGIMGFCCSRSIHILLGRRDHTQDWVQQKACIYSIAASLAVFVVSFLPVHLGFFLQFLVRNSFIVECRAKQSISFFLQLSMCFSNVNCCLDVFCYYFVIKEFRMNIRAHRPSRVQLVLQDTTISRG

[4] = Luminescent dose response cell-based high throughput screening assay for inhibitors of the Janus kinase 2 mutant JAK2V617F. [Related pubchem assays: 1446 (Primary screen.), 1521 (Confirmation assay.), 1486 (Counter screen.)]; format: functional
Protein RecA = target: T3, Protein RecA (Mycobacterium tuberculosis, UniProt P9WHJ3); assay: Fluorescence Cell-Free Homogeneous Dose Retest to Identify Inhibitors of RecA-Intein Splicing Activity. [Related pubchem assays (depositor defined):AID2097, AID2223, AID489010, AID492950]; format: functional
T3 sequence (P9WHJ3 whole entry): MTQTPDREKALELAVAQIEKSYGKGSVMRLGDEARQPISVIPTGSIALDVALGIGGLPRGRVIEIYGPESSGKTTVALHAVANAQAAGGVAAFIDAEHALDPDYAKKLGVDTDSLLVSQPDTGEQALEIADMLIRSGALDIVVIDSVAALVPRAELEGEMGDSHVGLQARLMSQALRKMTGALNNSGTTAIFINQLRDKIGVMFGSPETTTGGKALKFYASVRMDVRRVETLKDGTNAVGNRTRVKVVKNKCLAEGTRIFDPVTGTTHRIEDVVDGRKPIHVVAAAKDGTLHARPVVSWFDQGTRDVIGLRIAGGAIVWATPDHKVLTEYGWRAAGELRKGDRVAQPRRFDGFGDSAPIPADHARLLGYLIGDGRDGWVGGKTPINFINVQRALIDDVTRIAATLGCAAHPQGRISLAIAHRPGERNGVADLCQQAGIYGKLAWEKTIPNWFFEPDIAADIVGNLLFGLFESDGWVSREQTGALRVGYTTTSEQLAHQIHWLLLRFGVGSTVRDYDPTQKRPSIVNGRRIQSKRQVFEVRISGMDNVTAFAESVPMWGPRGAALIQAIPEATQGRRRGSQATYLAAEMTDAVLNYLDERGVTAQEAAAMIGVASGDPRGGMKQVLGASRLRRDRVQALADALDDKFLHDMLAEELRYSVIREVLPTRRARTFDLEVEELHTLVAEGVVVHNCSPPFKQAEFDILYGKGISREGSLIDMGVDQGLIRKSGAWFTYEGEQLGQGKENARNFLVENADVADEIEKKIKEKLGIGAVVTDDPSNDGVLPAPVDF

[5] = target: T4, Heat shock factor protein 1 (Mus musculus, UniProt P38532); assay: inhibition of MG132-induced HSE-luciferase signal, confirmation, cell-based, NIH3T3, luminescence, dose retest (AID 2382); format: functional;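 also: NIH3T3 fibroblasts with HSF1-driven luciferase reporter stressed by proteasome inhibitor MG132; luminescence from HSF1-driven luciferase expression after 8 hours of MG132 stress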
T4 sequence (P38532 whole entry): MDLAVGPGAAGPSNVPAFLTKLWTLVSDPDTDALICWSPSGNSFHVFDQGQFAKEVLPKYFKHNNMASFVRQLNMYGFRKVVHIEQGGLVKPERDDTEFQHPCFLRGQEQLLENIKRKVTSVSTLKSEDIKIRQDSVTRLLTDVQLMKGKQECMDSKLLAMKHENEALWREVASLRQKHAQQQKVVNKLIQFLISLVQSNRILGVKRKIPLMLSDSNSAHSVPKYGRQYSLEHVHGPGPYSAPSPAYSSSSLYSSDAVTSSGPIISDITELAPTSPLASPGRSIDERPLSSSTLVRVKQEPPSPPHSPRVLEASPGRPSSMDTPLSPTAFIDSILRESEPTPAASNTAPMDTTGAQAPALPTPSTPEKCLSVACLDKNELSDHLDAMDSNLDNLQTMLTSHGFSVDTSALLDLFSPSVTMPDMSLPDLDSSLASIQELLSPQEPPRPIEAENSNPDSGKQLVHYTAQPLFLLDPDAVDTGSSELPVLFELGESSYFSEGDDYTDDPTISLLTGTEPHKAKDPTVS

[6] = Luminescence Cell-Based Dose Confirmation HTS to Identify Activators of 5'UTR Stem-Loop Driven Alpha-Synuclein mRNA Translation in H4 Neuroglioblastoma Cells. [Related pubchem assays: 1829 (Project Summary), 1814 (Primary HTS)]; format: functional
[7] = Luminescence Cell-Based Dose Response HTS to Identify Activators of Luciferase Translation or Activity in H4 […] Cells. [Related pubchem assays: 1829 (Project Summary), 1814 (Primary HTS)]; format: functional
H4 = assay: Luminescence Cell-Based Dose Response HTS to Identify Activators of 5'UTR Stem-Loop Driven Prion Protein mRNA Translation in H4 Neuroglioblastoma Cells. [Related pubchem assays: 1829 (Project Summary), 1814 (Primary HTS)]; format: functional; conditions: Homo sapiens
Aminopeptidase N = target: T5, Aminopeptidase N (Plasmodium falciparum FcB1/Columbia, UniProt O96935); assay: P. falciparum M1AAP inhibitors, biochemical, fluorogenic H-Leu-NHMec substrate, 1536-well (AID 1445); parameters: species or system Plasmodium falciparum 3D7, 3D7
T5 sequence (O96935 whole entry): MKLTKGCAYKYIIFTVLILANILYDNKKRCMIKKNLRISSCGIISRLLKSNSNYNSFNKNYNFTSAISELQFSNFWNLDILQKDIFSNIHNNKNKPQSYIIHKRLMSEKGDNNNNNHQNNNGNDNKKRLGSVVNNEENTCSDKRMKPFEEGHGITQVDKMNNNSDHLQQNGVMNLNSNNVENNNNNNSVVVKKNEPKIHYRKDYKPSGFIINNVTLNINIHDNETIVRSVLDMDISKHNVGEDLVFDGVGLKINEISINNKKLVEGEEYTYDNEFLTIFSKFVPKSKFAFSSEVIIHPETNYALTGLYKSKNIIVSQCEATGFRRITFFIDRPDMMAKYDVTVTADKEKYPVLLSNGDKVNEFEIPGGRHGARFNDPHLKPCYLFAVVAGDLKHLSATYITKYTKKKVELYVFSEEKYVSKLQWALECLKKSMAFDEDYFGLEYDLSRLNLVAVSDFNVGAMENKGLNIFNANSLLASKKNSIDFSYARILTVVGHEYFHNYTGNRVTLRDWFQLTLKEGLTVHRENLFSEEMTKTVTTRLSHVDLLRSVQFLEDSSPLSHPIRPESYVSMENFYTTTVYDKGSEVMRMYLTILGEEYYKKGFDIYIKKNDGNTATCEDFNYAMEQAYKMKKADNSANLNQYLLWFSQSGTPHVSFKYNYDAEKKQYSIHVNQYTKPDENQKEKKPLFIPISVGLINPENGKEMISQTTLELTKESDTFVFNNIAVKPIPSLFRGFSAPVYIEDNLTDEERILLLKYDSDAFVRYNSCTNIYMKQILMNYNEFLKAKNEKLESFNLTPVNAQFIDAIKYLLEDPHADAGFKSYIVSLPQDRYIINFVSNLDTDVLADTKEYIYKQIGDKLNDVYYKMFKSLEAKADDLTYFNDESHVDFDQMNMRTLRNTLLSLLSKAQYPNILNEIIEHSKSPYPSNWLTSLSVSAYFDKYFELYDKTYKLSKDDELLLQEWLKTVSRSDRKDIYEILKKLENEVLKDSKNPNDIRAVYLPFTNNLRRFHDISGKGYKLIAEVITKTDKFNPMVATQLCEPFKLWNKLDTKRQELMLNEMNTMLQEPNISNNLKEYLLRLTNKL

[8] = Luminescence Cell-Based Dose Retest to Confirm Inhibitors of Cancer Stem Cells. [Related pubchem assays (depositor defined):AID2717, AID2721]; format: functional; conditions: Homo sapiens
[9] = target: T6, Microphthalmia-associated transcription factor (Homo sapiens, UniProt O75030); assay: TRPM1 promoter luciferase signal decrease, dose response, MITF inhibitor project, cell-based, SK-MEL-5, cherry-picked, set 3 (AID 493073); format: functional
T6 sequence (O75030 whole entry): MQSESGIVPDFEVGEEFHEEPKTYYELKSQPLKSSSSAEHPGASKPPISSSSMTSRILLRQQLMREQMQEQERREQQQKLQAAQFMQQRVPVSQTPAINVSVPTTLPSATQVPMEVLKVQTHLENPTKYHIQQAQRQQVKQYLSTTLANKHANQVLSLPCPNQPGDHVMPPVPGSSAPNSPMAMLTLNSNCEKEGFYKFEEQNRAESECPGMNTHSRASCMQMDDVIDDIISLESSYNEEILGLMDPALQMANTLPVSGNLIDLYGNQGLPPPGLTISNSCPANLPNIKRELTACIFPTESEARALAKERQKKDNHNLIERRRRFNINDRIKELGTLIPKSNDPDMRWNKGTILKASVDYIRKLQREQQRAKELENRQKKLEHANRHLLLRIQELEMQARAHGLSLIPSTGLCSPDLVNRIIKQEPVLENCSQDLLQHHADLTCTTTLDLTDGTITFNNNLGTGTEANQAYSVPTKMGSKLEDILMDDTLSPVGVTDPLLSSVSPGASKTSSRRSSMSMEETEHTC

Chain of Cytochrome P450 3A4 (P08684 whole entry): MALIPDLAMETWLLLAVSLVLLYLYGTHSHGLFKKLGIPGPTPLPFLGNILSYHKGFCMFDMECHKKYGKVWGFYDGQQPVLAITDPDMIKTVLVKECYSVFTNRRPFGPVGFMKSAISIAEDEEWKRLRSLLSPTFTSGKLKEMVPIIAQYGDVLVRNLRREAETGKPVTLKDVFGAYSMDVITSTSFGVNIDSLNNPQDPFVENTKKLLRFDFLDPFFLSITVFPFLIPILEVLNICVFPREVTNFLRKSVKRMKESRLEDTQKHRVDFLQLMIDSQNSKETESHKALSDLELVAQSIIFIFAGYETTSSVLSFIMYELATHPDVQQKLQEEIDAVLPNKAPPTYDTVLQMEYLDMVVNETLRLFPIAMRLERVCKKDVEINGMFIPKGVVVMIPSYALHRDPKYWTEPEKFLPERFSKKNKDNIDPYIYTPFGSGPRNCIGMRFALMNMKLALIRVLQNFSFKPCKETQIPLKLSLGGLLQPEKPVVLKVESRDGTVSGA

CNNC
AC50 (Cytochrome P450 3A4): 31.6 µM (inconclusive)

Oc1c2nc3cccc(Cl)c3c-2ncn1CCN1CCCCC1
IC50 (Coagulation factor XII): > 50 µM (inactive)

Cn1c(-c2ccccc2)cnc1SCC(N)=O
IC50 (Coagulation factor XII): > 50 µM (inactive)

C=C(C)C(O)/C=C/c1ccccc1OC (stereo not given)
AC50 (Cytochrome P450 3A4): 2.51 µM (inconclusive)

COc1ccccc1NC(=O)CSc1nnnn1C
IC50 (Coagulation factor XII): > 50 µM (inactive)

NCc1cc(-c2cccnc2)n[nH]1
IC50 [1]: > 100 µM (not active) | IC50 [2]: > 100 µM (inactive)

O=C(Nc1ccccc1N1CCCCC1)c1ccc(N2C(=O)c3ccccc3C2=O)cc1
IC50 [3]: 1.99 µM (active)

O=C(CCl)N(C/C=C/c1ccccc1)c1ccc2c(c1)OCCO2
IC50 [4]: 0.605 µM (active) | EC50 (Protein RecA): 0.356 µM (active) | EC50 [5]: 1.67 µM (active)

COC(=O)c1ccc(C23CC4(C2)[C@H](CN(C)[C@@H]4c2ccccc2)C3c2ccc(C(F)(F)F)cc2)cc1 (stereo not given in full)
AC50 (Cytochrome P450 3A4): 15.8 µM (inconclusive)

COc1ccc(OC)c(NS(=O)(=O)c2ccc(SC)cc2)c1
EC50 [6]: > 120 µM (not active) | IC50 [4]: 3.35 µM (active) | EC50 [7]: 6.98 µM (active) | EC50 (H4): 44.8 µM (active)

NS(=O)(=O)c1ccc(CCNC(=O)COC(=O)CCSc2ccc(Cl)cc2)cc1
IC50 (Aminopeptidase N): 46.8 µM (active)

CCCN1[C@H](C(=O)OC)C[C@@H]2CC[C@@H](O)C[C@@H]21
AC50 (Cytochrome P450 3A4): 15.8 µM (inconclusive)

CCOC(=O)C1=C(Nc2ccc(OC)cc2)S/C(=C\c2ccc(OCC(=O)O)c(OC)c2)C1=O
IC50 (Aminopeptidase N): 87.3 µM (active)

COC(=O)[C@@H]1C[C@@H]2CC[C@@H](O)C[C@@H]2N1Cc1ccc(N2CCOCC2)cc1
AC50 (Cytochrome P450 3A4): 3.98 µM (inconclusive)

CCCCc1cc(=O)oc2cc(C)cc(OCc3nn[nH]n3)c12
IC50 (Aminopeptidase N): 63.6 µM (active)

O=S(=O)(Nc1ccc2ccccc2c1)c1cc(Cl)ccc1Cl
IC50 [1]: > 100 µM (not active) | IC50 [2]: > 100 µM (inactive) and > 10 µM (inactive)

CC(C)(C)C(=O)N1N=C(Nc2ccccc2)SC1(C)C
IC50 (Coagulation factor XII): > 50 µM (inactive)

CN(CC(O)CON=C1c2ccccc2-c2ccccc21)S(=O)(=O)c1ccc(Br)cc1 (stereo not given)
AC50 [8]: 4.11 µM (active) | IC50 [3]: 2.14 µM (active)

CC(C)CN=C(NS(=O)(=O)c1ccccc1)C(Cl)(Cl)Cl
AC50 [8]: 2.15 µM (active) | IC50 [3]: 2.02 µM (active) | AC50 [9]: 11.1 µM (active) | EC50 [5]: 7.41 µM (active)
